Assays:
NPR-B = molecular target: T1, NPR-B (Homo sapiens, UniProt P20594); assay: NPR-B induced production of cyclic GMP in GTM-3 cells; format: cell-based; conditions: EC50, cyclic GMP production, GTM-3 cells, FIG. 2, 4-Parameter Logistic Equation
T1 construct: a functional assay using endogenously NPR-B expressing GTM-3 cells; endogenous in cells; host or cells: GTM-3 (transformed human trabecular meshwork cells)
T1 sequence (P20594 23-1047): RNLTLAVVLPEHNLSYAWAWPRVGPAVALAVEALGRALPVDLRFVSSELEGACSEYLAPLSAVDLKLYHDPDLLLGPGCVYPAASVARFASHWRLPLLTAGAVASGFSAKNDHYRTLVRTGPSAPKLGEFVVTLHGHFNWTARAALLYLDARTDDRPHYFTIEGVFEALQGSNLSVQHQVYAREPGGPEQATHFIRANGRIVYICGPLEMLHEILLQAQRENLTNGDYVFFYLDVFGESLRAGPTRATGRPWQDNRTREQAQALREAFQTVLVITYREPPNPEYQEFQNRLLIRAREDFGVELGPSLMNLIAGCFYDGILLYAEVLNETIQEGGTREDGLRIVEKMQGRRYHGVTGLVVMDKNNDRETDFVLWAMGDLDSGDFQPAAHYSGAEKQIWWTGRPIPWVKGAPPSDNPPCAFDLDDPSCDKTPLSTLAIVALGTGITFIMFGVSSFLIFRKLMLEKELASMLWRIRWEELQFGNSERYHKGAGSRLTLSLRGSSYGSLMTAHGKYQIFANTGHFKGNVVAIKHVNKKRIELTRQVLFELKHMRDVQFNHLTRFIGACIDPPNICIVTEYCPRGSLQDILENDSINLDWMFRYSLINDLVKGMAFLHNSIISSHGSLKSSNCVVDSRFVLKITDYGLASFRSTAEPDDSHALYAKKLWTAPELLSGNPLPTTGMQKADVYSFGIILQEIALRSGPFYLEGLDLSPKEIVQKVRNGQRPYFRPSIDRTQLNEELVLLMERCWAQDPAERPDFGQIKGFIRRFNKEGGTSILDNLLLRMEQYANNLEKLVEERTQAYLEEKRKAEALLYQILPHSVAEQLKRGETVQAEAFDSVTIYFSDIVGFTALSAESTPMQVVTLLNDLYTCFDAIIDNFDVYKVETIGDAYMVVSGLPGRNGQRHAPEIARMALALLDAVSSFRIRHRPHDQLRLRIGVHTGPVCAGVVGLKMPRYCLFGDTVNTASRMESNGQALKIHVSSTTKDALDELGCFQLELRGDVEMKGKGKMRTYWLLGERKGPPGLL
How it was run: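 GTM-3 cells with endogenous NPR-B were washed and preincubated 15 min at room temperature in medium with 1 mM IBMX. Compounds were tested at final 45 μM to 20 nM; dose-dependent cGMP production gave Emax and EC50.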

chondrocytes = conditions: low doses 10 to 100 pM, at the highest dose; cited from earlier work
AtT-20 cells = conditions: cited from earlier work
[1] = system: small-cell lung cancer cells; conditions: 100 nM; cited from earlier work
[2] = system: human renal carcinoma cells; conditions: 100 μM; cited from earlier work
NPR-A = NPR-A (Rattus norvegicus, UniProt P18910); assay: cell-based
NPR-A, sequence (P18910 29-1057): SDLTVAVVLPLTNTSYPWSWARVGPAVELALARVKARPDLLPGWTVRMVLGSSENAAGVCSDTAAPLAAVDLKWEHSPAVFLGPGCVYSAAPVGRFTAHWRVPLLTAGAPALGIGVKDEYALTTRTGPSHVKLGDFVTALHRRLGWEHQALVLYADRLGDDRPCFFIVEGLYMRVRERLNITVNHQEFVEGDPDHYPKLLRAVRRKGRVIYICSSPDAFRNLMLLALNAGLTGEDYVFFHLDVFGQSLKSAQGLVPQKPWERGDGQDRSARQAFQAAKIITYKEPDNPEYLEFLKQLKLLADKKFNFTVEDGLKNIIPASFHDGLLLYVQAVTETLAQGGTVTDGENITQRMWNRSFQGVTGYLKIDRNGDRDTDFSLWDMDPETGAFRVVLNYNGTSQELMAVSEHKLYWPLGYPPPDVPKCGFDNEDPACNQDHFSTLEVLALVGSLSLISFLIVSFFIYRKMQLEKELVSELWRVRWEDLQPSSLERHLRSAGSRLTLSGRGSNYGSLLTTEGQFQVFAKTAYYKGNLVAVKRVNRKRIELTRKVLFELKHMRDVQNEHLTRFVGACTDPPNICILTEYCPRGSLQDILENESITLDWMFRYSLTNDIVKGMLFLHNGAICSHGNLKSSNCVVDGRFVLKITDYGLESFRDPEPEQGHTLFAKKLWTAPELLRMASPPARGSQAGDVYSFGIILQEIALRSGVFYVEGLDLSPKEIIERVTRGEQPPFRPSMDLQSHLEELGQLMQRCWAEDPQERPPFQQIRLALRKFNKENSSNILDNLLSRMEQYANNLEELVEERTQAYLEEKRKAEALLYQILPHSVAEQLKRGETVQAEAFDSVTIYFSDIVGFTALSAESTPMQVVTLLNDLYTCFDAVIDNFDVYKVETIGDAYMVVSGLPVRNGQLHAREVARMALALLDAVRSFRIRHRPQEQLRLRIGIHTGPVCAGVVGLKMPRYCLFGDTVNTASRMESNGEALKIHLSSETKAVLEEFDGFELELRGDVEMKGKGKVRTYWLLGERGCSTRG
Procedure: In this homogenous assay, the cells are stimulated in suspension with the test compound and the production of cyclic GMP (cGMP) is determined, from which EC50 values are calculated.
Detached cells are harvested in 20 ml PBS and centrifuged for 10 min at 200×g at room temperature.
20 μl of cells (2.5×10^3 cells) are added to each well of a 96 well white optical bottom tissue culture plate (Nunc, Germany). 10 μl of compound dilution is added and the cells are stimulated for 25 min. at room temperature. The stimulation is stopped by addition of 20 μl of Lysis buffer (reagent included in cGMP Assay Kit).
Determination of cGMP: The amount of produced cGMP in the cells is determined using HitHunter™ cGMP Assay kit (DiscoveRX) according to manufacturer's instructions.
Dilutions are prepared in Medium supplemented with IBMX (1 mM).

For `CC[C@H](C)[C@@H]1NC(=O)[C@H](CCCNC(=N)N)NC(=O)[C@H](CC(=O)O)NC(=O)[C@H](CC(C)C)NC(=O)[C@H](CCCCN)NC(=O)[C@H](CC(C)C)NC(=O)CNC(=O)[C@H](Cc2ccccc2)NC(=O)[C@@H](NC(=O)CNC(=O)[C@H](CCCCN)NC(=O)[C@H](CO)NC(=O)[C@H](CC(C)C)NC(=O)CN)CSSC[C@@H](C(=O)O)NC(=O)CNC(=O)[C@H](CC(C)C)NC(=O)CNC(=O)[C@H](CO)NC(=O)[C@H](CCSC)NC(=O)[C@H](CO)NC(=O)CNC1=O` [CNP, C-type natriuretic peptide], the EC50 (NPR-B) is listed as 38.8 nM, the “increase in cellularity (chondrocyte proliferation)” value (chondrocytes) is listed as “up to 43%” and the “stimulation of cGMP production” value (AtT-20 cells) is listed as “up to 200 fold”. For the same molecule, the “decrease in the number of cells” value [1] was 39%, the “decrease in cell number” value [2] was 10% and the EC50 (NPR-A) was 1600 nM.

Source: US9458198B1, “Cyclic peptide-based NPR-B agonists” (priority 2009, dated 2016)
